What was measured:
[1] = system: Staphylococcus aureus RN4220 GFP biofilm; assay: Examples 4 and 5: log reduction of Staphylococcus aureus biofilm after bacterial pretreatment followed by benzalkonium chloride; assay type: cell-based; settings: Example 5; treatment with C14 benzalkonium chloride after pretreatment with the named strain(s)
Description: The target biofilms of Staphylococcus aureus RN4220 GFP cultivated in microplates and bacilli cultures used are obtained according to the method previously described for Bacillus thuringiensis 407.
(§1) On a microplate containing 24-hour biofilms of Staphylococcus aureus RN4220 GFP having a thickness greater than 30 μm, one carefully removes 250 μL of supernatant from each well. 250 μL of culture medium (control) or suspension of: • Bt • BtΔfla • Bl • or Bt+Bl at equal concentrations, calibrated at 10^8 cells/mL are then added to each well.
The Staphylococcus aureus biofilms in the presence or not of bacteria are then incubated at 37° C. for 4 hours to allow infiltration of swimming bacteria. The supernatants are eliminated prior to placement into contact with the biocide.
These target biofilms are then treated by adding to the wells 200 μL of C14 benzalkonium chloride (BAC, Fluka, Buchs, Switzerland) at a concentration of 750 ppm, or 200 μl of […] sodium chloride (NaCl) (“non-treated” biofilm. […]
The surviving S. aureus are counted on TSA agar after serialized dilutions in 150-mM NaCI and incubation for 24 hours at 37° C.
The log 10 reductions of the S. aureus bacteria are calculated by comparing the relationship of the surviving ones in the disinfected biofilms to the population of non-treated biofilms. […]

[2] = system: Staphylococcus aureus RN4220 GFP biofilm; assay: Example 2: Staphylococcus aureus biofilm treated with lysostaphin with or without pretreatment by swimming Bacillus thuringiensis 407, residual biovolume; assay type: cell-based
Description: The strains of bacteria used for these experiments correspond to strains of Staphylococcus aureus RN4220 GFP and Bacillus thuringiensis 407 described in Table I.
The target biofilms of Staphylococcus aureus RN4220 GFP cultivated in microplates and the Bacillus thuringiensis 407 cultures used are obtained according to the method described previously.
as §1, with “of more” for “greater”, “of Bacillus thuringiensis 407” for “of: • Bt • BtΔfla • Bl • or Bt+Bl at equal concentrations,”, “into” for “to”
The Staphylococcus aureus biofilms in the presence or not of swimming bacteria are then incubated at 37° C. for 4 hours.
These target biofilms, sensitized or not for 4 hours by a cocktail of swimming bacteria, are then treated by adding into the wells 250 μL of lysostaphin in a concentration range of 0 to 0.5 μg/ml.
The same experimental device as the one described in the first experiment was used to quantify the effectiveness of treatment (comparison between the residual biovolume of the target biofilm during activity of the lysostaphin with or without pretreatment and a cocktail of swimming bacteria).

C14 benzalkonium chloride
Log reduction (+/−0.2) [1]: −0.9 log

lysostaphin
eradication of the target biofilm by the antimicrobial compound alone ([2]; lysostaphin concentration <0.5 μg/ml, without pretreatment): does not allow eradication
effectiveness on the target biofilm after pretreatment with a cocktail of swimming bacteria ([2]; pretreatment Bacillus thuringiensis 407 10^8 cells/mL 4 hours, lysostaphin 0 to 0.5 μg/ml, P<0.05): improved

Reference: US20140065122A1, “Method for Removing a Microorganism Biofilm” (priority 2010, published 2014)
